Consider 8 compounds from ChEMBL document CHEMBL5029172, “Neopentyl Glycol as a Scaffold to Provide Radiohalogenated Theranostic Pairs of High In Vivo Stability” (J Med Chem, 2021).

Where only a bound is given, the exact number is not on record here.

A short description of data set [1]: Stability of compound in presence of GSH measured upto 24 hrs by TLC radiochromatogram. Type of data set: physicochemical.
The nature of data set [2]: Biodistribution in ICR mouse assessed as blood clearance by measuring elimination rate at 7.4 kBq, iv upto 24 hrs. To be noted: in vivo. Type of data set: ADME, organism-based.
Data set [3] can be described thus: Metabolic stability in mouse liver microsomes assessed as intact fractions at […] preincubated for 5 min measured by TLC followed by RP-HPLC. The following applies: read-out: Activity. Type of data set: ADME, Microsome. (Liver microsomes are a subcellular fraction often used to study metabolism.)
Data set [4] is described as follows: Biodistribution in ICR mouse stomach at 7.4 kBq, iv upto 24 hrs. Type of data set: ADME, organism-based. To be noted: in vivo.
A short description of data set [5]: Metabolic stability in mouse liver microsomes assessed as intact fractions at 0.3 MBq preincubated for 5 min measured by TLC analysis. The following applies: read-out: Stability. Type of data set: ADME, Microsome.
A short description of data set [6]: Biodistribution in ICR mouse neck at 7.4 kBq, iv upto 24 hrs. To be noted: in vivo. Type of data set: ADME, organism-based.
Data set [7] is described as follows: Drug metabolism in ICR mouse urine assessed as metabolite during retention time measured at 7.4 kBq, iv after 6 hrs by RP-HPLC followed by HILIC-HPLC analysis. Type of data set: ADME, organism-based.
The nature of data set [8]: Metabolic stability in human liver microsomes assessed as intact fractions at […] preincubated for 5 min measured by TLC followed by RP-HPLC. Type of data set: ADME, Microsome. To be noted: read-out: Activity.
A short description of data set [9]: Metabolic stability in human liver microsomes assessed as intact fractions at 0.3 MBq preincubated for 5 min measured by TLC analysis. The following applies: read-out: Stability. It is filed as ADME, Microsome.
Data set [10] can be described thus: Metabolic stability in human liver microsomes assessed as retention time at […] measured after 5 mins by RP-HPLC. Type of data set: ADME, Microsome.
Data set [11] can be described thus: Metabolic stability in mouse liver microsomes assessed as retention time at […] measured after 5 mins by RP-HPLC. Type of data set: ADME, Microsome.

Turning to `O=[N+]([O-])c1nccn1CC(CO)(CO)C[211At]`, in data set [1], the Stability result is recorded as “Stable”. Moreover, the CL entry in data set [2] is “Active”. The remaining at 5 min in data set [3] and in data set [8] was 96.9% each time. In addition, the Drug uptake result in [4] and in [6] was “Not Active” each time. The remaining at 5 min, 0.3 MBq in data set [5] and in data set [9] was 96.9% each time. Besides, in [7], the Drug metabolism result was “Metabolite_Detected”.
Turning to `CCC(C[125I])(CO[C@@H]1O[C@H](C(=O)O)[C@@H](O)[C@H](O)[C@H]1O)Cn1ccnc1[N+](=O)[O-]` (stereo partly specified), the Retention_time in data set [10] and in data set [11] was below 0.2 min in each case. The remaining at 5 min in [3] and in [8] was above 99.8% in each case.
Regarding `O=C(O)[C@H]1O[C@@H](OCC(CO)(C[125I])Cn2ccnc2[N+](=O)[O-])[C@H](O)[C@@H](O)[C@@H]1O` (stereo partly specified), the Retention_time in [10] and in [11] was below 0.2 min in each case. The remaining at 5 min in [3] and in [8] was above 99.8% each time.
In the case of `O=C(NCCn1ccnc1[N+](=O)[O-])c1cccc([125I])c1`, the CL result in data set [2] is “Active”. Besides, the Drug uptake entry in data set [4] and in data set [6] was “Not Active” throughout. Further, the Drug excretion entry in data set [7] is on record as “Not Active”.
As for `O=C(NCCn1ccnc1[N+](=O)[O-])c1cccc([211At])c1`, the CL result in [2] is reported as “Not Active”. Besides, the Drug uptake entry in [4] and in data set [6] was “Active” throughout.
As for `CCC(CC)(C[125I])Cn1ccnc1[N+](=O)[O-]`, in data set [1], the Stability result is given as “Stable”. For the same compound, the figures for the Retention_time in [10] and in data set [11] were 16.5 min and 52.6 min, respectively. Further, the CL result in data set [2] was “Not Active”. The figures for the remaining at 5 min in data set [3] and in [8] were 2.2% and 1.5%, respectively. In addition, the Drug uptake entry in [4] and in data set [6] was “Active” in each case. For the same compound, in data set [7], the Drug excretion entry is “Active”.
For the compound `O=[N+]([O-])c1nccn1CC(CO)(CO)C[125I]`, in [1], the Stability entry is on record as “Stable”. Moreover, the Retention_time in data set [10] and in data set [11] was below 0.2 min throughout. In addition, the CL entry in data set [2] was “Active”. In addition, the remaining at 5 min in data set [3] and in data set [8] was above 99.8% in each case. The Drug uptake result in [4] and in data set [6] was “Not Active” throughout. For the same compound, the Drug metabolism entry in [7] is reported as “Metabolite_Detected”.
For the compound `CCC(CO)(C[125I])Cn1ccnc1[N+](=O)[O-]` (stereo unspecified), the Stability result in data set [1] is reported as “Stable”. The Retention_time in data set [10] is below 0.2 min; in [11], 23.5 min. The CL result in data set [2] is “Active”. Further, the figures for the remaining at 5 min in [3] and in data set [8] were 72% and above 99.8%, respectively. Moreover, the Drug uptake entry in [4] and in [6] was “Not Active” each time. For the same compound, the Drug excretion entry in data set [7] was “Active”.
